Measurements reported in patent US10363251B2, “(+)-morphinans as antagonists of toll-like receptor 9 and therapeutic uses thereof” (Mallinckrodt LLC, priority 2009, dated 2019).
Where two headings read alike, the source gives them in different places.

Target: T1, TLR9 (Homo sapiens, UniProt Q9NR96)
T1 construct: expressed in transfected cells; host or cells: HEK293
T1 sequence (Q9NR96 26-1032): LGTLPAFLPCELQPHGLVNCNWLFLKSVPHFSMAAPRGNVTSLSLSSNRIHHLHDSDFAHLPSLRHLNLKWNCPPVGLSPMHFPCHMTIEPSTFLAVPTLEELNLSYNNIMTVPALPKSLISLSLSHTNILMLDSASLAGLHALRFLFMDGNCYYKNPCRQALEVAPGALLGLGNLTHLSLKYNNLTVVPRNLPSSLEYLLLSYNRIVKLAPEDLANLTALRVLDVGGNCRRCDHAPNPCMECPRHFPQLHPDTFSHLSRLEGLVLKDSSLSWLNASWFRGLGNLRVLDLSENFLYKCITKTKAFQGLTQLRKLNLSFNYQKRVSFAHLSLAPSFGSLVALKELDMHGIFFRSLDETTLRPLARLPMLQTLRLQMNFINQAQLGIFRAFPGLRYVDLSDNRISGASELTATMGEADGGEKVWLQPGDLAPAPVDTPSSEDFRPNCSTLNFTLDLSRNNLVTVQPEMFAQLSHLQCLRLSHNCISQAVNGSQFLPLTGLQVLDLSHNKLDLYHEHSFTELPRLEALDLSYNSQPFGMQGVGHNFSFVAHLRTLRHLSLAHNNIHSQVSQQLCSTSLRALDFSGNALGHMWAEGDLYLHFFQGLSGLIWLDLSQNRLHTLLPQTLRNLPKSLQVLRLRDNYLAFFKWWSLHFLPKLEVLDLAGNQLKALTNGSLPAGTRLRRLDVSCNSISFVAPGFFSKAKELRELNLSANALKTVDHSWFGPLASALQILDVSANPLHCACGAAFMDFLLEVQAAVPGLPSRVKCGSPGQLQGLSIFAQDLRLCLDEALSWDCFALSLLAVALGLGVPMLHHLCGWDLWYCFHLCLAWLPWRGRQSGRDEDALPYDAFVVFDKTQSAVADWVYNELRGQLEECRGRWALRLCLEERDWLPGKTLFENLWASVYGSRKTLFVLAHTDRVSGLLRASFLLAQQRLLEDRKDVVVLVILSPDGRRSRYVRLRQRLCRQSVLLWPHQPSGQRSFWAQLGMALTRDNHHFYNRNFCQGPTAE
Experiment: TLR9 screening of (+)-morphinan library, SEAP reporter in HEK293 cells expressing TLR9
Format: cell-based
Settings: activator ODN2006; for OD 650 nm (mean ± sd): control (no activator) 0.14, activator 1.42 OD
Protocol: The secreted alkaline phosphatase reporter is under the control of a promoter inducible by the transcription factor NF-κB. A library of more than 100 (+)-morphinan compounds was screened for TLR9 antagonist activity by assessing NF-κB activation in the HEK293 cells expressing TLR9. This reporter gene allows the monitoring of signaling through the TLR, based on the activation of NF-κB.
In a 96-well plate (200 μL total volume) containing 50,000 cells/well, 20 μL of each sample compound was added to wells, in triplicate, followed by a 30 minute incubation at 37° C. and 5% CO2. After the 30 minutes of incubation, 20 μL of the activator ODN2006 was added to each well. The media added to the wells was designed for the detection of NF-κB induced SEAP expression. After a 16-20 hr incubation period, the OD at 650 nm was read on a Beckman Coulter AD 340C Absorbance Detector. All compounds were tested at concentrations of 10 μM and 100 nM.

[1] = HEK293, read-out: % Inhibition (mean), 100 nM
[2] = HEK293, read-out: % Inhibition (mean), 10 μM
[3] = HEK293, 100 nM, read-out: % Inhibition (mean)
[4] = HEK293, 10 μM, read-out: % Inhibition (mean)

Compound	OD 650 nm (mean ± sd) (100 nM) [OD]	OD 650 nm (mean ± sd) (10 μM) [OD]	inhibition at 0.1 µM [1] [%]	inhibition at 10 µM [2] [%]	inhibition at 0.1 µM [3] [%]	inhibition at 10 µM [4] [%]	% Inhibition (mean) (100 nM, 0.1 µM) [%]
C=CCN1CC[C@@]23c4c5ccc(OC)c4O[C@@H]2C2(CC[C@@H]3[C@@H]1C5)OCCO2 [II-89]	1.53 ± 0.10	1.08 ± 0.02	-8	24	–	–	–
O=C1CC[C@@H]2[C@@H]3Cc4ccc(O)c5c4[C@]2(CCN3)[C@@H]1O5 [II-61]	1.23 ± 0.02	1.22 ± 0.07	13	14	–	–	–
COc1ccc2c3c1O[C@@H]1C4(CCC5[C@H](C2)N(CC2CC2)CC[C@]351)OCCO4 (stereo partly drawn) [II-97]	1.22 ± 0.02	1.42 ± 0.07	14	0	–	–	–
COc1ccc2c(c1O)[C@@]13CCN(CC4CC4)C(C2)C1CCC(=O)C3 (stereo partly drawn) [Compound I-6]	1.29 ± 0.07	0.12 ± 0.02	9	91	–	–	–
C=CCN1CC[C@@]23CC(=O)CCC2C1Cc1c(-c2ccoc2)cc(OC)c(O)c13 (stereo partly drawn) [Compound I-3]	1.12 ± 0.01	0.11 ± 0.00	21	92	–	–	–
COc1cc(Br)c2c(c1O)[C@@]13CCN(CC4CCC4)C(C2)C1CCC(=O)C3 (stereo partly drawn) [Compound I-8]	1.13 ± 0.07	0.11 ± 0.01	20	92	–	–	–
C=CCN1CC[C@@]23CC(=O)CCC2C1Cc1ccc(OC)c(O)c13 (stereo partly drawn) [Compound I-7]	1.14 ± 0.03	0.16 ± 0.01	20	89	–	–	–
COc1cc(Br)c2c(c1O)[C@@]13CCN(CC4CC4)C(C2)C1CCC(=O)C3 (stereo partly drawn) [Compound I-2]	1.10 ± 0.06	0.14 ± 0.02	22	90	–	–	–
COc1ccc2c3c1O[C@@H]1C(=O)CC[C@@H]4[C@H](C2)N(C(C)=O)CC[C@@]314 [II-31]	1.40 ± 0.04	1.37 ± 0.11	2	3	–	–	–
OCCNC1CC[C@]2(O)[C@@H]3Cc4ccc(O)c5c4[C@]2(CCN3CC2CC2)[C@@H]1O5 (stereo partly drawn) [II-76]	0.16 ± 0.01	0.10 ± 0.01	89	93	–	–	–
COc1ccc2c3c1O[C@@H]1C(N)CC[C@]4(O)[C@H](C2)N(C)CC[C@@]314 (stereo partly drawn) [II-43]	0.10 ± 0.01	0.09 ± 0.00	93	94	–	–	–
COc1cc(Br)c2c3c1OC1C(=O)CC[C@@H]4[C@H](C2)N(C)CC[C@@]314 (stereo partly drawn) [II-11]	1.22 ± 0.10	0.44 ± 0.05	14	69	–	–	–
C=CCN1CC[C@@]23c4c5ccc(OC)c4O[C@@H]2C(=C)CC[C@@H]3[C@@H]1C5 [II-22]	1.31 ± 0.19	0.75 ± 0.06	8	47	–	–	–
COc1ccc2c(c1)CCN[C@@H]2Cc1ccc(OC)c(O)c1 [III-1]	1.34 ± 0.06	0.67 ± 0.01	–	–	6	53	–
COc1ccc2c3c1O[C@@H]1C(NC(C)=O)CC[C@@H]4[C@H](C2)N(C)CC[C@@]314 (stereo partly drawn) [II-9]	1.25 ± 0.09	1.00 ± 0.02	12	29	–	–	–
COC1=CCC2[C@@H]3Cc4ccc(OC)c5c4[C@]2(CCN3C(=O)Oc2ccccc2)[C@@H]1O5 (stereo partly drawn) [II-100]	1.16 ± 0.02	1.45 ± 0.11	18	-2	–	–	–
COC1=CC=C2[C@@H]3Cc4ccc(OC)c5c4[C@]2(CCN3C)[C@@H]1O5 [II-34]	1.39 ± 0.05	0.94 ± 0.08	2	34	–	–	–
COc1ccc2c(c1)CCN(C)[C@@H]2Cc1ccc(OC)c(O)c1 [III-5]	1.11 ± 0.02	0.29 ± 0.01	–	–	22	80	–
COc1cc(Br)c2c3c1O[C@@H]1C(=O)CCC4C(C2)NCC[C@]341 (stereo partly drawn) [II-1]	0.97 ± 0.04	0.19 ± −0.2	32	86	–	–	–
COc1ccc2c3c1O[C@@H]1C(=O)CC[C@@H]4[C@H](C2)N(C(=O)C2CC2)CC[C@@]314 [II-57]	0.84 ± 0.02	1.15 ± 0.03	–	19	–	–	41
[O-][N+]1(CC2CC2)CC[C@@]23c4c5ccc(O)c4O[C@@H]2[C@H](O)CC[C@]3(O)[C@@H]1C5 (stereo partly drawn) [II-90]	1.39 ± 0.03	0.17 ± 0.05	2	88	–	–	–
CN(C(=O)/C=C/c1ccoc1)[C@H]1CC[C@]2(O)[C@@H]3Cc4ccc(O)c5c4[C@]2(CC[N+]3([O-])CC2CC2)[C@@H]1O5 (stereo partly drawn) [II-63]	0.23 ± 0.07	0.13 ± 0.01	84	91	–	–	–
COc1ccc2c3c1O[C@@H]1C(=O)CC[C@@H]4[C@H](C2)N(C(=O)C2CCC2)CC[C@@]314 [II-85]	1.45 ± 0.04	1.45 ± 0.04	-2	-2	–	–	–
COc1ccc2c3c1O[C@@H]1C(NCCO)CC[C@@H]4[C@H](C2)N(C)CC[C@@]314 (stereo partly drawn) [II-10]	0.24 ± 0.02	0.10 ± 0.01	83	93	–	–	–
COc1cc(-c2ccoc2)c2c(c1O)[C@@]13CCN(CC4CC4)C(C2)C1CCC(=O)C3 (stereo partly drawn) [Compound I-13]	1.34 ± 0.12	0.13 ± 0.01	6	91	–	–	–
COc1cc(Br)c2c3c1O[C@@H]1C(=O)CCC4C(C2)N(CC2CC2)CC[C@]341 (stereo partly drawn) [II-23]	1.16 ± 0.01	0.53 ± 0.05	18	63	–	–	–
COC(=O)CCc1cc(OC)c(O)c2c1CC1C3CCC(=O)C[C@@]23CCN1CC1CC1 (stereo partly drawn) [Compound I-4]	1.17 ± 0.06	0.46 ± 0.05	18	68	–	–	–
C=C1CC[C@]2(O)[C@@H]3Cc4ccc(OC)c5c4[C@]2(CCN3C)[C@@H]1O5 [II-41]	1.27 ± 0.03	1.02 ± 0.09	11	28	–	–	–
COc1ccc2c3c1O[C@@H]1C(O)CC[C@]4(O)[C@H](C2)N(C)CC[C@@]314 (stereo partly drawn) [II-40]	1.41 ± 0.13	1.37 ± 0.07	0	4	–	–	–
COc1ccc2c(c1O)[C@@]13CCN(C)[C@@H](C2)[C@H]1CC(OC)C(O)C3 (stereo partly drawn) [Compound I-10]	1.32 ± 0.04	1.04 ± 0.08	7	27	–	–	–
